Values after ≈ are worked out from the molar mass of the structure shown.
Experiments:
HaCaT cells [1] = assay: Morphological examination of the effect on HaCaT cell differentiation; assay type: cell-based, human
Method: HaCaT cells were cultured in DMEM culture medium containing 10% FBS under 37° C. and 5% CO2 concentration. When reaching 80% of the culture bottle area and after digestion by 0.25% trypsin, the cells were adjusted to a concentration of 4×10^4/ml and moved to a 6-well plate respectively (containing sterilized slide). Compound solutions were added. The cells were applied to the corresponding wells, and a blank control group (saline) was set. Both the sample groups and the control group were placed in a cell incubator at 37° C. Immumohistochemical staining was conducted after incubation at 48 h.
The imagine in FIG. 1A is dark brown, indicating large amount of keratin is present. […] Compound No. 5 underwent cornification (positive result).

[2] = test system: chick chorioallantoic membrane; assay: Chick chorioallantoic membrane (CAM) angiogenesis model; assay type: in vivo, chicken; conditions: 100 μg/egg
Method: Fresh eggs were incubated for 6 successive days under 37° C. and 50% humidity. On the 6th day, live eggs were identified and taken out for window-opening. First, the chorioallantoic membrane was located with illumination. Droplets of Compound No. […] After air dry, the filter paper was placed on the chorioallantoic membrane gently without contacting big vessels. The window was sealed with a transparent adhesive tape. The eggs were incubated for 48 hours continuously. The transparent adhesive tape was then uncovered. The window was enlarged and photos were taken under a dissecting microscope (FIGS. 2 A-B). New vessels were counted based on the number of blood vessel branch points in each photo. Inhibitory rate=100−[(number of new blood vessels in treatment group at 24 h)/(number of new blood vessels in treatment group at 0 h)]/[(number of blood vessels in negative control group at 24 h)/(number of blood vessels in negative control group at 0 h)]×100%.

guinea pig ear epidermis = assay: Propranolole hydrochloride-induced psoriasis in guinea pig model; assay type: in vivo; conditions: 200 μl on both ears twice daily, 7 days
Method: Except for those in Saline control group, guinea pigs were treated with propranolole hydrochloride cream (5% w/w, 200 μl) uniformly applied on the back of both ears twice daily for four successive weeks. After four weeks, the […] were divided into several groups, namely, blank cream group, calcipotriol group, and four testing cream groups with Compound 5 at concentration of 0.5%, 1%, 2%, and 4% (w/w)), respectively. The guinea pigs in Saline control group were treated with saline on the back of both ears; the guinea pigs in other groups were treated with corresponding cream on the back of both ears (200 μl) twice daily for 7 successive days. The guinea pigs were examined during the experiment period and sacrificed 1 hour after the last dosing.

HaCaT cells [3] = assay: In-vitro screening with MTT method, inhibition of proliferation of HaCaT cells; assay type: cell-based, human; conditions: Homo sapiens, HaCaT, about 48 hours incubation
Method: Compound No. 5 was dissolved in DMSO, and gradiently diluted with PBS to prepare solutions at concentration of 1000 μg/ml, 100 μg/ml, 10 μg/ml, 1 μg/ml, 0.1 μg/ml, and 0.01 μg/ml, respectively. Cis-platinum (CDDP) was used as positive control, and sample solutions were prepared with the same method. The sample solutions were added into a 96-well plate placed with the growth phase human immortalized keratinocyte (HaCaT) cells (Pharmacology Laboratory of Shanghai Institute of Pharmaceutical Industry), and were incubated for about 48 hours. The cell relative survival rate was determined by the MTT method, and calculated according to the following formula based on the light absorption value at […]. Cell relative survival rate=(Light absorption value of sample treatment group—background light absorption value)/(Light absorption value of DMSO treatment group—background light absorption value).

[4] = test system: mouse vaginal epidermal cells; assay: Effect on mitosis of mouse vaginal epidermal cells; assay type: in vivo; conditions: 25 μl intravaginal once daily, 3 days, estradiol-treated mice, n = 6
Method: Except for the saline control group, sexually mature female mice were injected with estradiol subcutaneously at a dosage of 35 mg/kg for 3 successive days. On the fourth day, in-estrus mice were selected with vaginal smear. The mice were randomly divided into several groups: (a) saline control group, saline was used in each administration; (b) blank cream group, blank cream was used in each administration; (c) calcipotriol control group, calcipotriol in cream (5% w/w) was used in each administration; (d) four testing groups, Compound No 5 in cream at concentration of 0.5%, 1%, 2%, and 4% (w/w), respectively, was used in each application. 25 μl corresponding treatment was injected into the vagina of the mice once daily for 3 successive days. Colchicine (15 mg/Kg) was intraperitoneally injected 2 hours after the last dosing. The mice were sacrificed 6 hours after the injection of colchicine. The vaginal tissue was taken out for pathological examination. The number of mitosis in one hundred basal cells was counted, which was named as the mitotic index.

mouse tail epidermis = assay: Effect on mouse tail epidermis (granular layer of tail scales); assay type: in vivo; conditions: 100 μl once daily, 7 days, female mice, n = 10
Method: 70 female mice were randomly divided into several groups: (a) saline control group, saline was used in each administration; (b) blank cream group, blank cream was used in each administration; (c) calcipotriol control group, calcipotriol in cream (5% w/w) was used in each administration; (d) four testing groups, Compound No 5 in cream at 0.5%, 1%, 2%, and 4% (w/w), respectively, was used in each administration. 100 μl of corresponding treatment was applied to the same position on the tail of the mice once daily for seven successive days. The mice were sacrificed 1 hour after the last application. The treated skin parts were taken for pathological examination, and the tail scales of each mouse was assessed under a microscope. The number of scales having a granular layer in every 100 scales was counted, and the result was expressed as percentage.

Cc1cnc(Nc2ccc(F)cc2Cl)nc1-c1cc2n(c1)CCN([C@H](CO)c1cccc(Cl)c1)C2=O [Compound 5, (S)-7-(2-((2-chloro-4-fluorophenyl)amino)-5-methylpyrimidin-4-yl)-2-(1-(3-chlorophenyl)-2-hydroxyethyl)-3,4-dihydropyrrolo[1,2-a]pyrazin-1(2H)-one]
Differentiation of HaCaT cells (keratin, cornification) (HaCaT cells [1]; 100 μg/ml, 48 h, inverted microscope x200, FIG. 1A): induced differentiation of HaCaT cells
Test Results, effect on HaCat cell differentiation (HaCaT cells [1]; 48 h incubation, immunohistochemical staining): Positive
Number of new blood vessels 0 h ([2]; 0 h, n = 3): 18.83 ± 5.60
Number of new blood vessels 48 h ([2]; 48 h, n = 3): 16.00 ± 5.73
Inhibitory rate (%) ([2]; 48 h, versus PBS group): 125.76%
Epidermal thickness (μm) (guinea pig ear epidermis; cream 0.5% w/w): 190.31 ± 17.89 μm
Epidermal thickness (μm) (guinea pig ear epidermis; cream 1% w/w): 180.74 ± 11.05 μm
Epidermal thickness (μm) (guinea pig ear epidermis; cream 2% w/w): 156.59 ± 13.25 μm
Epidermal thickness (μm) (guinea pig ear epidermis; cream 4% w/w): 128.96 ± 13.61 μm
IC50 (HaCaT cells [3]): 544 µg/mL (≈ 1030 µM)
Mitotic cell number/total cell number (%) ([4]; cream 0.5% (w/w)): 18.33 ± 1.86 %
Mitotic cell number/total cell number (%) ([4]; cream 1% (w/w)): 15.00 ± 3.35 %
Mitotic cell number/total cell number (%) ([4]; cream 2% (w/w)): 14.83 ± 2.48 %
Mitotic cell number/total cell number (%) ([4]; cream 4% (w/w)): 14.50 ± 3.62 %
Scales quantity in granular layer * 100% (mouse tail epidermis; cream 0.5% (w/w)): 42.40 ± 3.03 %
Scales quantity in granular layer * 100% (mouse tail epidermis; cream 1% (w/w)): 47.00 ± 5.29 %
Scales quantity in granular layer * 100% (mouse tail epidermis; cream 2% (w/w)): 50.80 ± 7.50 %
Scales quantity in granular layer * 100% (mouse tail epidermis; cream 4% (w/w)): 58.80 ± 7.64 %

Source: patent US10238657B2, “Heterocyclic compounds for treating psoriasis” (JS INNOPHARM (SHANGHAI LTD.), priority 2015, dated 2019)
